# Measured values taken from patent publication US7402557B2, “Combined treatment with keratinocyte growth factor and epidermal growth factor inhibitor” (priority 2000, dated 2008).
# B1: KGF-2: keratinocyte growth factor family member, also known as FGF-10 (protein, UniProt O15520 38-208, looked up)
# Fibroblast growth factor 10: QALGQDMVSPEATNSSSSSFSSPSSAGRHVRSYNHLQGDVRWRKLFSFTKYFLKIEKNGKVSGTKKENCPYSILEITSVEIGVVAVKAINSNYYLAMNKKGKLYGSKEFNNDCKLKERIEENGYNTYASFNWQHNGRQMYVALNGKGAPRRGQKTRRKNTSAHFLPMVVHS
# B2: KGF: Human recombinant KGF expressed in E. coli as a 19 kDa protein, purchased from Sigma Chemical Co. (protein, UniProt P21781 32-194, looked up)
# Fibroblast growth factor 7: CNDMTPEQMATNVNCSSPERHTRSYDYMEGGDIRVRRLFCRTQWYLRIDKRGKVKGTQEMKNNYNIMEIRTVAVGIVAIKGVESEFYLAMNKEGKLYAKKECNEDCNFKELILENHYNTYASAKWTHNGGEMFVALNQKGIPVRGKKTKKEQKTAHFLPMAIT
# B3: KGF-1: keratinocyte growth factor family member, also known as FGF-7 (protein, UniProt P21781 32-194, looked up)
# Fibroblast growth factor 7: B2 Fibroblast growth factor 7
# Tests used:
# [1] = test system: normal keratinocytes and EGFR over-expressing tumor cells; settings: cited from earlier work
# [2] = test system: hyper-phosphorylated retinoblastoma protein (ppRB); settings: cited from earlier work
# [3] = test system: p27^kip1/waf1; settings: cited from earlier work
# [4] = test system: p27^kip1/waf1; assay: Immunoblot of p27^kip1/waf1 protein level in NHEK lysates; type: cell-based, human; settings: 24 hr
# Procedure: (§1) The protective effect of KGF on keratinocytes was measured in two types of assays, the first to determine its protective effect on cell cycle phase distribution against a small molecule EGFR inhibitor, and the second to determine its protective effect against ppRB depletion and p27^kip1/waf1 upregulation caused by the EGFR inhibitor. The effect of KGF on cell cycle phase distribution was measured by bivariate analysis of bromodeoxyuridine incorporation and propidium iodide uptake by […] using flow cytometry. The protective effect of KGF against ppRB depletion and p27^kip1/waf1 upregulation was measured by immunoblotting of lysates from treated and control […] cells with antibodies specific for RB and p27^kip1/waf1, respectively. The methods are described in detail below.
# (§2) All experiments were carried out with normal human neonatal epidermal keratinoctyes, NHEK (Clonetics, San Diego, Calif.). Cells were maintained in Keratinocyte Growth Medium, KGM-2 (Clonetics). Human recombinant KGF expressed in E. coli as a 19 kDa protein was purchased from Sigma Chemical Co. (St. Louis, Mo.).
# (§3) NHEK cells were seeded in 6-well plates and grown until semi-confluent in KGM-2. […] Total protein concentration of the lysates was determined using the BCA protein assay (Pierce Chemicals, Rockford, Ill.). […]
# [5] = test system: hyperphosphorylated retinoblastoma protein (ppRB); assay: Immunoblot of hyperphosphorylated RB (ppRB) in NHEK lysates; type: cell-based, human; settings: 24 hr
# Procedure: as §1, §2, §3
# [6] = test system: normal human neonatal epidermal keratinoctyes, NHEK; assay: Flow cytometric measurement of cell cycle arrest (BrdU incorporation / propidium iodide); type: cell-based; settings: for % G1 / % G2 / % S: 24 hr, NHEK; for effect on cell cycle phase distribution (in words): keratinocytes treated for 24 hours
# Procedure: as §1, §2
# NHEK cells were seeded in 60-mm dishes in KGM-2. When the cells were semiconfluent, the medium was replaced with fresh medium containing the test agents: vehicle (0.125% DMSO); vehicle+20 ng/ml KGF; vehicle+0.3 μM CP-358, 774-01+/−20 ng/ml KGF; or vehicle+1 μM CP-358, 774-01+/−20 ng/ml KGF. The cells were incubated at 37° C. in a 5% CO2, humidified atmosphere. After 24 hr, bromodeoxyuridine (BrdU) was added to the medium at a final concentration of 10 μM for 30 min. The cells were then harvested using 0.25% trypsin/1 mM EDTA and counted using a Coulter counter. Aliquots of 2×10^6 cells were collected by centrifugation at 220×g for 5 min, washed in 2 ml phosphate buffered saline (PBS) containing 2.5% fetal calf serum, resuspended in 0.2 ml PBS, and fixed by the addition of 5 ml 70% ethanol at −20° C. After a 30 min incubation on ice, the cells were collected by centrifugation at 500×g for 5 min and resuspended in 25 μl PBS. One ml of 0.2 mg/ml pepsin in 2 N HCI was added and the cells were incubated for 30 min at rm temp. Cells were collected by centrifugation at 1500×g for 5 min and washed with 1 ml 0.1 M sodium borate, pH 8.5. Cells were pelleted at 1500×g for 5 min, resuspended in 1 ml of fluorescein isothiocyanate (FITC)-conjugated anti-BrdU (Becton Dickinson, San Jose, Calif.) diluted fifty-fold in PBS containing 0.5% Tween 20 and 1% bovine serum albumin, and incubated at ambient temperature in the dark for 30 min. After a final wash with PBS with 0.5% Tween 20 and 1% BSA, the cells were resuspended in PBS containing 10 μg/ml propidium iodide and 10 μg/ml RNase, filtered through a 35 µm mesh and analyzed on a FACSCalibur flow cytometer (Becton Dickinson) equipped with an argon laser with an emission wavelength of 488 nm. FITC fluorescence data was acquired at 515-545 nm, and propidium iodide fluorescence data was acquired at […]. A minimum of 20,000 cells was analyzed per sample. Data was analyzed using CellQuest software (Becton-Dickinson) and the percent of cells in each phase (G1, S, G2) of the cell cycle was calculated.
# [7] = test system: FGFR1iiib receptor; settings: cited from earlier work
molecule,measurement,setting,value
"C#Cc1cccc(Nc2ncnc3cc(OCCOC)c(OCCOC)cc23)c1 [CP-358,774, [6,7-bis(2-methoxy-ethoxy)-quinazolin-4-yl]-(3-ethynylphenyl)amine]",cell cycle arrest (accumulation of cells in G1 phase),[1],causes cell cycle arrest
same,effect on hyper-phosphorylated retinoblastoma protein (ppRB),[2],causes depletion
same,effect on cyclin-dependent kinase inhibitor p27^kip1/waf1,[3],accumulation
C#Cc1cccc(Nc2ncnc3cc(OCCOC)c(OCCOC)cc23)c1.Cl [Compound A],induction of p27^kip1/waf1 protein levels,[4]; 0.3 μM Compound A,3.9 fold
same,induction of p27^kip1/waf1,[4]; 1 μM Compound A,5.2 fold
same,ppRB signal on RB immunoblot,[5]; 0.3 μM Compound A,dramatically reduced
same,ppRB band on RB immunoblot,[5]; 1 μM Compound A,completely abolished
same,% G1,[6]; 0.3 μM Compound A,75%
same,% G2,[6]; 0.3 μM Compound A,11%
same,% S,[6]; 0.3 μM Compound A,13%
same,% G1,[6]; 1 μM Compound A,85%
same,% G2,[6]; 1 μM Compound A,10%
same,% S,[6]; 1 μM Compound A,6.0%
same,effect on cell cycle phase distribution (in words),[6],concentration dependent accumulation of cells in the G1 phase of the cell cycle and a corresponding decrease in the S-phase fraction
B1,binding to FGFR1iiib receptor,[7],high affinity
B2,% G1,[6]; 20 ng/ml KGF alone,52%
same,% G2,[6]; 20 ng/ml KGF alone,13%
same,% S,[6]; 20 ng/ml KGF alone,34%
same,effect on cell cycle phase distribution (in words),[6],no significant effect
B3,binding to FGFR1iiib receptor,[7],high affinity
